Structures are written as SMILES. Activity calls are given as the source filed them. The calls are words filed in the database; no cut-off is given here. Where only a bound is given, the exact number is not on record here.

Our source for the ED50 and AD50 values is ChEMBL document CHEMBL1122790, “Novel opiates and antagonists. 6. 7-Alkyl-6,7-didehydromorphinans” (1984).

Experiment [1] deals with Mus musculus. As to the kind of experiment: Compound was evaluated for its analgesic activity by mouse acetic acid writhing test after subcutaneous administration at a dose 10 mg/kg; Ia= inactive. The format is functional, organism-based. Also noted: dose 10 mg/kg. For orientation: An intraperitoneal irritant provokes the stretching counted in writhing tests.
For experiment [2], the system named is Rattus norvegicus. Briefly: Compound was evaluated for its analgesic activity by Rat-tail-flick test after subcutaneous administration. The format is functional. The following applies: for ED50: sc. (In general: In hot-plate and tail-flick tests a longer latency is read as antinociception.)
For experiment [3], the system named is Mus musculus. Briefly: Analgesic activity in the mouse acetic acid writhing test following s.c. administration. The format is functional. Particulars: sc.
The test system of experiment [4] is Rattus norvegicus. As to the kind of experiment: Compound was evaluated for its analgesic activity by Rat-tail-flick test after subcutaneous administration at a dose 10 mg/kg; Ia= inactive. Format: functional, organism-based. Also noted: dose 10 mg/kg.
In experiment [5] the test system is Mus musculus. Briefly: Compound was evaluated for its analgesic activity by mouse acetic acid writhing test after subcutaneous administration at a dose 10 mg/kg. Format: functional. The following applies: sc.

The term ED50 denotes the midpoint of the dose-response relation. As for `CCCCC(O)C1=CCC23CCN(C)C(Cc4ccc(OC)cc42)[C@@H]3C1` (stereo partly drawn), the ED50 entry with Mus musculus [1] was “inactive”.

In the experiment on Rattus norvegicus [2], `CCCCC(=O)C1=CC2Oc3c(OC)ccc4c3C23CCN(C)C(C4)C3C1.Cl` (stereo not drawn) returned an ED50 above 10 mg/kg. The ED50 entry in the experiment with Mus musculus [1] was “inactive”.

Regarding `COc1ccc2c3c1OC1C=C([C@@H](O)CCCc4ccccc4)CC4C(C2)N(C)CCC314` (stereo partly drawn), the 50% effect level in the experiment with Mus musculus [3] (ED50) was put at a dose of 1.6 mg/kg.

With `CCCCC(O)C1=CC2Oc3c(OC)ccc4c3C23CCN(C)C(C4)C3C1` (stereo not drawn), the ED50 entry in the experiment with Rattus norvegicus [4] is “inactive”. This compound also returned an ED50 with Mus musculus [3] of 3.13 mg/kg.

`COc1ccc2c(c1)C13CC=C(C=O)C[C@@H]1C(C2)N(C)CC3` (stereo partly drawn) [listing 1 of 2 here]: the ED50 result with Rattus norvegicus [4] was “inactive”.

`CCCC[C@H](O)C1=CCC23CCN(C)C(Cc4ccc(OC)cc42)[C@H]3C1` (stereo partly drawn): the ED50 in the experiment on Rattus norvegicus [2] was found to be 0.3 mg/kg; with Mus musculus [3] it was 0.0058 mg/kg.

For the compound `COc1ccc2c(c1)C13CCN(CC4CC4)C(C2)[C@H]1CCC(=O)C3` (stereo partly drawn), the AD50 in the experiment on Rattus norvegicus [2] was 1.3 mg/kg. The compound further came in with an ED50 in the experiment with Mus musculus [3] above 10 mg/kg.

`COc1ccc2c3c1OC1C=C([C@H](O)CCCc4ccccc4)CC4C(C2)N(C)CCC314` (stereo partly drawn) had an ED50 in the experiment with Mus musculus [3] of 0.72 mg/kg.

Turning to `CCCCC(C)(O)C1=CCC23CCN(C)C(Cc4ccc(O)cc42)C3C1` (stereo not drawn), in the experiment with Mus musculus [1], the ED50 result was “inactive”.

With `COc1ccc2c3c1O[C@H]1C(=O)CC[C@H]4[C@@H](C2)N(C)CC[C@]314.O=C(O)C(O)C(O)C(=O)O`, the ED50 with Mus musculus [3] was determined as 1.06 mg/kg.

Consider `CCCCC(=O)C1=CCC23CCN(C)C(Cc4ccc(O)cc42)[C@H]3C1` (stereo partly drawn), for which the ED50 with Rattus norvegicus [2] turned out to be 0.0135 mg/kg; with Mus musculus [3] it was 0.046 mg/kg.

In the case of `CCCCC(O)C1=CC2Oc3c(OC)ccc4c3C23CCN(C)C(C4)C3(O)C1.Cl` (stereo not drawn), in the experiment with Mus musculus [3], the 50% effect level (ED50) was put at a dose of 9.8 mg/kg.

`CCCCC(=O)C1=CCC23CCN(C)C(Cc4ccc(OC)cc42)[C@H]3C1.Cl` (stereo partly drawn) gave an ED50 with Mus musculus [3] of 0.82 mg/kg.

Turning to `COc1ccc2c(c1)C13CCN(C)C(C2)C1CCC(=O)C3` (stereo not drawn), in the experiment with Rattus norvegicus [2], the ED50 is above 20 mg/kg.

For `CC(=O)C1=CCC23CCN(C)C(Cc4ccc(O)cc42)C3C1` (stereo not drawn), the ED50 in the experiment with Rattus norvegicus [2] and in the experiment on Mus musculus [3] was above 10 mg/kg each time.

As for `CN1CC[C@]23c4c5ccc(O)c4O[C@H]2C(=O)CC[C@H]3[C@H]1C5.Cl` [HYDROMORPHONE HYDROCHLORIDE], the ED50 with Mus musculus [3] turned out to be 0.08 mg/kg.

On to `COc1ccc2c3c1OC1C(=O)/C(=C/N(C)C)CC4C(C2)N(C)CCC314` (stereo not drawn), for which the ED50 entry with Rattus norvegicus [4] and in the experiment with Mus musculus [1] was “inactive” in each case.

The compound `COc1ccc2c(c1)C13CC=C(C=O)C[C@@H]1C(C2)N(C)CC3.Cl` (stereo partly drawn) had an ED50 in the experiment with Mus musculus [5] of 4.55 mg/kg.

Turning to `CN1CC[C@]23c4c5ccc(O)c4O[C@H]2[C@@H](O)C=C[C@H]3[C@H]1C5.CN1CC[C@]23c4c5ccc(O)c4O[C@H]2[C@@H](O)C=C[C@H]3[C@H]1C5.O=S(=O)(O)O`, the results for the ED50 with Rattus norvegicus [2] and in the experiment with Mus musculus [3] were 7.32 mg/kg and 0.79 mg/kg, respectively.

As to `CCCC[C@@H](O)C1=CCC23CCN(C)C(Cc4ccc(OC)cc42)[C@H]3C1` (stereo partly drawn), the figures for the median effective dose (ED50) in the experiment on Rattus norvegicus [2] and with Mus musculus [3] were 1.8 mg/kg and 0.0062 mg/kg, respectively.

In the case of `CCCCC(C)(O)C1=CCC23CCN(C)C(Cc4ccc(OC)cc42)C3C1` (stereo not drawn), the ED50 result with Rattus norvegicus [4] and with Mus musculus [1] was “inactive” each time.

Take `CCCCC(C)(O)C1=CCC23CCN(C)C(Cc4ccc(OC)cc42)[C@H]3C1` (stereo partly drawn): the values for the ED50 with Rattus norvegicus [2] and with Mus musculus [3] were 3.2 mg/kg and 0.0125 mg/kg, respectively.

In the case of `COc1ccc2c(c1)C13CCN(C)C(C2)[C@H]1CCC(=O)C3` (stereo partly drawn), the median effective dose (ED50) in the experiment with Rattus norvegicus [2] was 0.66 mg/kg; with Mus musculus [3], 0.49 mg/kg.

Take `CCCCC(O)C1=CCC23CCN(CC4CC4)C(Cc4ccc(OC)cc42)[C@H]3C1` (stereo partly drawn): in the experiment with Mus musculus [3], the 50% effect level (ED50) was put at a dose of 0.21 mg/kg.

For `COc1ccc2c3c1OC1C=C(C(C)O)CC4C(C2)N(C)CCC314` (stereo not drawn), the ED50 entry with Rattus norvegicus [4] and with Mus musculus [1] was “inactive” throughout.

Compound `COc1ccc2c3c1O[C@H]1C(=O)CC[C@@]4(O)[C@@H](C2)N(C)CC[C@]314.Cl` [OXYCODONE HYDROCHLORIDE] came in with an ED50 with Mus musculus [3] of 0.3 mg/kg.

Regarding `CCCCS/C=C1\CC2C3Cc4ccc(OC)c5c4C2(CCN3C)C(O5)C1=O` (stereo not drawn), the ED50 with Rattus norvegicus [2] and in the experiment on Mus musculus [3] was above 10 mg/kg in each case.

In turn, `COc1ccc2c3c1OC1C=C(C=O)CC4(O)C(C2)N(C)CCC314` (stereo not drawn) gave an ED50 with Mus musculus [3] of 3.6 mg/kg.

In the experiment with Mus musculus [3], `COc1ccc2c(c1)C13CC=C(C=O)C[C@@H]1C(C2)N(C)CC3` (stereo partly drawn) [listing 2 of 2 here] had an ED50 of 0.28 mg/kg.

Regarding `COc1ccc2c3c1OC1C=C(C=O)CC4C(C2)N(C)CCC314` (stereo not drawn), in the experiment with Rattus norvegicus [4], the ED50 result is “inactive”. The same compound yielded a 50% effective dose (ED50) with Mus musculus [3] of 1.45 mg/kg.

With `COc1ccc2c3c1OC1C=C(C(C)=O)CC4C(C2)N(C)CCC314` (stereo not drawn), the ED50 result in the experiment on Rattus norvegicus [4] and in the experiment on Mus musculus [1] was “inactive” throughout.

Take `CCCCNCC1=CC2Oc3c(OC)ccc4c3C23CCN(C)C(C4)C3C1` (stereo not drawn): the ED50 entry in the experiment with Mus musculus [1] is “inactive”.
